Data: US20110173709A1, “ECTOPIC, ORTHOTOPIC MODEL FOR REVASCULARIZATION AND TUMOR ASSESSMENT” (Sidney Kimmel Cancer Center, priority 2007, published 2011)

System: N202-H2BGFP tumor spheroids
Assay: Doxorubicin treatment of N202-H2BGFP tumor spheroids in dorsal skinfold window chamber
Assay type: in vivo, mouse
Settings: single dose 1 or 5 mg/kg via the tail vein after re-vascularization, nu/nu nude mice

## COc1cccc2c1C(=O)c1c(O)c3c(c(O)c1C2=O)C[C@@](O)(C(=O)CO)C[C@@H]3O[C@H]1C[C@H](N)[C@H](O)[C@H](C)O1 [Doxorubicin]
Orthotopic engrafted mammary fat pad, over a 2 week period, FIG. 6B
  effect on the growing tumor implanted on the engrafted mammary fat pad: little to no effect
Tumor implanted on skinfold, FIG. 6A
  effect on the growing tumor implanted on the skinfold: essentially tumor stasis
